Measurements taken from patent publication US20120028897A1, “METHODS AND COMPOSITIONS FOR THE TREATMENT OF FLUID RETENTION DISORDERS” (priority 2008, published 2012).

Key:
anesthetized rats [1] = test: Renal potassium excretion during and after iv peptide infusion in anesthetized rats; type: in vivo, rat
Method: (§1) Rats were not fasted prior to clearance experiments and ranged in weight from 250-340 g at the time of study. Anesthesia was induced with an intraperitoneal injection of pentobarbital sodium (55 mg/kg BW) and maintained at a surgical plane by intermittent intravenous supplementation. Core temperature was maintained at 37° C. by a servo-controlled, heated operating table. Animals breathed spontaneously through a PE240 cannula inserted into the trachea. A jugular vein was catheterized with PE50 cannula tubing for intravenous infusion of isotonic saline containing FITC-labeled inulin (0.4% W/V, Sigma, St Louis Mo.) and two PE10 cannulae, one for supplemental anesthetic and the other for peptide infusions (described below in the experimental protocol section). The ureters were exposed through a midline ventral incision and cannulated with PE10 tubing about one cm from each kidney. Urine was collected over 20 min periods and the volume estimated by weight. A femoral artery was cannulated with PE50 tubing for continuous measurement of arterial blood pressure and intermittent blood samples (50 μl), taken at the mid point of each urine collection.
Arterial blood pressure was measured with a pressure transducer connected to a cardiovascular analyzer (Model 50110, Stoelting Instruments Wood Dale, Ill.). Left renal blood flow was measured in some rats with a flow probe positioned on the left renal artery and connected to a blood flow monitor (model 1 PRB probe and model T420 monitor, Transonic Systems Inc. Ithaca N.Y.). Arterial pressure, heart rate, and renal blood flow were digitized with an A/D converter (Keithley instruments, Cleveland, Ohio Model KUSB 3100) for display and storage on a Windows-based personal computer using open layers data acquisition software (Dtx_Ez, Data Translation Inc, Marlboro, Mass.). Sodium and potassium concentrations in plasma and urine were measured by flame photometry (Model 943, Instrumentation Laboratory Co., Lexington Mass.). Glomerular filtration rate (GFR) was measured as the renal clearance rate of FITC-labeled inulin
(§2) After post-surgical equilibration (−60 min) and three 20 min control clearance periods, huUgnA or B was infused into the jugular vein at 10 μl/min over a 60 min period, followed by a return to isotonic saline for the remainder of the experiment. The infused doses of huUgnA were 12, 25, 50, 100, or 200 nmol/kg BW in a total of 38 rats; huUgnB doses were 9, 18, 35, 70, and 140 nmol/kg BW in 35 rats. A UgnA mimetic, E. coli STh (ST-core), was infused into a third group of 32 rats at doses of 17, 32, 66, 133, and 266 nmol/kg. Renal excretory responses to these infusions were slow to develop and long lasting, so clearance periods were continued for 2-3 hr after the termination of the peptide infusion. This protracted time course limited protocols to one dose of one peptide in each rat. A control group of 10 rats received isotonic saline at 10 μl/min in place of the peptide infusion, but was otherwise treated in the same way as the experimental groups.
Sodium and potassium excretion rates are expressed as absolute values (UNaV and UKV) or factored by filtered load to provide fractional excretion (FENa and FEK). Glomerular filtration rate (GFR) was equated with inulin clearance. The net natriuretic response to peptide infusions was assessed by summing total Na excretion during infusion and post-infusion collection periods in each rat after subtraction of corresponding mean values obtained from the control group. The cumulative net excretion obtained in this way provides a measure of the natriuretic response to each dose of peptide infused. Results from both kidneys were averaged for each rat before calculating group means±sem.
Group comparisons were made with one way analysis of variance (ANOVA) using peptide doses as column variables. […]

anesthetized rats [2] = test: Urine flow rate during and after iv peptide infusion; type: in vivo, rat
Method: as §1, §2
Group comparisons were made with one way analysis of variance (ANOVA) using peptide doses as column variables. Columns were further divided into pre-infusion, infusion, and post infusion subgroups to facilitate post hoc testing with Bonferroni's method for selected multiple comparisons. Row variables were individual measurements from each clearance period for each rat. Responses were tested for statistical significance by comparing control values during the pre-infusion, infusion and post infusion collection periods with corresponding values obtained from peptide-infused rats. Each experimental group included 5 different doses of huUgnA, huUgnB, or ST-core. Thus, fifteen comparisons were required for each measured variable in each group.

[3] = huUgnB 70 nmol, Post-infuse, * p<0.05 vs time control
[4] = huUgnB 140 nmol, Post-infuse, ** p<0.01 vs time control

SMILES: CC(C)C[C@H](NC(=O)[C@@H]1CSSC[C@@H]2NC(=O)[C@H](CC(C)C)NC(=O)[C@H](CCC(=O)O)NC(=O)[C@@H](NC(=O)[C@H](CC(=O)O)NC(=O)[C@H](CC(=O)O)NC(=O)[C@@H](N)CC(N)=O)CSSC[C@H](NC(=O)[C@H](C)NC(=O)[C@H](C(C)C)NC(=O)[C@H](CC(N)=O)NC(=O)[C@H](C(C)C)NC2=O)C(=O)N[C@@H]([C@@H](C)O)C(=O)NCC(=O)N1)C(=O)O (single isomer, unassigned) [huUgnB, Asn Asp Asp Cys Glu Leu Cys Val Asn Val Ala Cys Thr Gly Cys Leu]
- FEK (fractional potassium excretion) (anesthetized rats [1]; huUgnB 9 nmol, Infuse): 30.6 ± 6.1 % of filtered
- UKV (potassium excretion) (anesthetized rats [1]; huUgnB 9 nmol, Infusion): 840 ± 83 nEq/min/g KW
- FEK (fractional potassium excretion) (anesthetized rats [1]; huUgnB 9 nmol, Post-infuse): 34.8 ± 3.1 % of filtered
- UKV (potassium excretion) (anesthetized rats [1]; huUgnB 9 nmol, Post-infuse): 943 ± 82 nEq/min/g KW
- FEK (fractional potassium excretion) (anesthetized rats [1]; huUgnB 9 nmol, Pre-infuse): 23.4 ± 6.0 % of filtered
- UKV (potassium excretion) (anesthetized rats [1]; huUgnB 9 nmol, Pre-infuse): 655 ± 79 nEq/min/g KW
- FEK (fractional potassium excretion) (anesthetized rats [1]; huUgnB 18 nmol, Infuse): 29.6 ± 3.2 % of filtered
- UKV (potassium excretion) (anesthetized rats [1]; huUgnB 18 nmol, Infusion): 860 ± 72 nEq/min/g KW
- FEK (fractional potassium excretion) (anesthetized rats [1]; huUgnB 18 nmol, Post-infuse): 39.2 ± 2.6 % of filtered
- UKV (potassium excretion) (anesthetized rats [1]; huUgnB 18 nmol, Post-infuse): 1014 ± 79 nEq/min/g KW
- FEK (fractional potassium excretion) (anesthetized rats [1]; huUgnB 18 nmol, Pre-infuse): 20.0 ± 2.3 % of filtered
- UKV (potassium excretion) (anesthetized rats [1]; huUgnB 18 nmol, Pre-infuse): 592 ± 71 nEq/min/g KW
- FEK (fractional potassium excretion) (anesthetized rats [1]; huUgnB 35 nmol, Infuse): 32.6 ± 3.7 % of filtered
- UKV (potassium excretion) (anesthetized rats [1]; huUgnB 35 nmol, Infusion): 837 ± 84 nEq/min/g KW
- FEK (fractional potassium excretion) (anesthetized rats [1]; huUgnB 35 nmol, Post-infuse): 38.9 ± 3.0 % of filtered
- UKV (potassium excretion) (anesthetized rats [1]; huUgnB 35 nmol, Post-infuse): 998 ± 85 nEq/min/g KW
- FEK (fractional potassium excretion) (anesthetized rats [1]; huUgnB 35 nmol, Pre-infuse): 25.7 ± 2.4 % of filtered
- UKV (potassium excretion) (anesthetized rats [1]; huUgnB 35 nmol, Pre-infuse): 729 ± 79 nEq/min/g KW
- FEK (fractional potassium excretion) (anesthetized rats [1]; huUgnB 70 nmol, Infuse): 37.7 ± 9.8 % of filtered
- UKV (potassium excretion) (anesthetized rats [1]; huUgnB 70 nmol, Infusion): 1297 ± 209 nEq/min/g KW
- FEK (fractional potassium excretion) (anesthetized rats [1]; huUgnB 70 nmol, Post-infuse): 47.1 ± 5.6 % of filtered
- UKV (potassium excretion) (anesthetized rats [1]; [3]): 1491 ± 183* nEq/min/g KW
- FEK (fractional potassium excretion) (anesthetized rats [1]; huUgnB 70 nmol, Pre-infuse): 20.4 ± 5.5 % of filtered
- UKV (potassium excretion) (anesthetized rats [1]; huUgnB 70 nmol, Pre-infuse): 791 ± 265 nEq/min/g KW
- FEK (fractional potassium excretion) (anesthetized rats [1]; huUgnB 140 nmol, Infuse): 49.2 ± 3.6 % of filtered
- UKV (potassium excretion) (anesthetized rats [1]; huUgnB 140 nmol, Infusion): 1086 ± 124 nEq/min/g KW
- UKV (potassium excretion) (anesthetized rats [1]; huUgnB 140 nmol, Post-infuse): 1396 ± 89 nEq/min/g KW
- FEK (fractional potassium excretion) (anesthetized rats [1]; [4]): 58.4 ± 3.5** % of filtered
- FEK (fractional potassium excretion) (anesthetized rats [1]; huUgnB 140 nmol, Pre-infuse): 28.3 ± 0.9 % of filtered
- UKV (potassium excretion) (anesthetized rats [1]; huUgnB 140 nmol, Pre-infuse): 770 ± 78 nEq/min/g KW
- FEK vs control (anesthetized rats [1]; post infusion period, only after the highest doses): increased over control levels
- V (urine flow rate) (anesthetized rats [2]; huUgnB 9 nmol, Infusion): 2.22 ± 0.19 μl/min/g KW
- V (urine flow rate) (anesthetized rats [2]; huUgnB 9 nmol, Post-infuse): 2.55 ± 0.18 μl/min/g KW
- V (urine flow rate) (anesthetized rats [2]; huUgnB 9 nmol, Pre-infuse): 1.84 ± 0.28 μl/min/g KW
- V (urine flow rate) (anesthetized rats [2]; huUgnB 18 nmol, Infusion): 2.40 ± 0.15 μl/min/g KW
- V (urine flow rate) (anesthetized rats [2]; huUgnB 18 nmol, Post-infuse): 3.11 ± 0.32 μl/min/g KW
- V (urine flow rate) (anesthetized rats [2]; huUgnB 18 nmol, Pre-infuse): 1.79 ± 0.14 μl/min/g KW
- V (urine flow rate) (anesthetized rats [2]; huUgnB 35 nmol, Infusion): 2.53 ± 0.16 μl/min/g KW
- V (urine flow rate) (anesthetized rats [2]; huUgnB 35 nmol, Post-infuse, *** p<0.005 vs time control): 3.84 ± 0.27*** μl/min/g KW
- V (urine flow rate) (anesthetized rats [2]; huUgnB 35 nmol, Pre-infuse): 2.38 ± 0.25 μl/min/g KW
- V (urine flow rate) (anesthetized rats [2]; huUgnB 70 nmol, Infusion): 3.11 ± 0.71 μl/min/g KW
- V (urine flow rate) (anesthetized rats [2]; [3]): 3.92 ± 0.5* μl/min/g KW
- V (urine flow rate) (anesthetized rats [2]; huUgnB 70 nmol, Pre-infuse): 2.04 ± 0.20 μl/min/g KW
- V (urine flow rate) (anesthetized rats [2]; huUgnB 140 nmol, Infusion): 2.71 ± 0.40 μl/min/g KW
- V (urine flow rate) (anesthetized rats [2]; [4]): 4.50 ± 0.80** μl/min/g KW
- V (urine flow rate) (anesthetized rats [2]; huUgnB 140 nmol, Pre-infuse): 2.24 ± 0.14 μl/min/g KW
